Measurements taken from article PMC11091117, “A fluorescently-tagged tick kinin neuropeptide triggers peristalsis and labels tick midgut muscles” (Scientific Reports, 2024).
Entries after “also recorded” stand apart in the source; their conditions may differ.

Columns and labels:
[1] = system: vector-only (V/O) CHO-K1 cells; test: Cellular end-point fluorescence calcium mobilization assay, vector-only control cells; format: cell-based; conditions: 10 µM peptide, Fluo-8, 29 °C, 60 s, 4 technical replicates
Excerpt: Three peptides were used in this study. These included: 1) the ligand for the endogenous tick kinin receptor from Rhipicephalus sanguineus, Rhisa-kinin 8 peptide of sequence GTGEDQAFSPWGamide (Rhisa-K-8; RK8; of identical sequence to Rhimi-K-8 in Rhipicephalus microplus)[48], 2) the same peptide but fluorescently labeled at the N-terminus with tetramethylrhodamine (TMR) a red fluorescent dye, designated TMR-Rhisa-K-8 (TMR-RK8), and 3) a labeled peptide synthesized with the scrambled sequence of the kinin ligand, designated TMR-Scrambled. The sequence of TMR-RK8 was TMR-C-GTGEDQAFSPWGamide). The TMR-Scrambled kinin (TMR-C-GTQWGPGFEADSamide) served as a negative control for tissue labeling. […]
A fluorescence-based intracellular calcium mobilization end-point assay described by Xiong, et al.[50] was used to confirm the activity of the TMR-labeled RK8 peptide on a cell line expressing the tick kinin receptor. […] The calcium fluorescence signal was detected by a CLARIOstar (BMG LABTECH, Chicago, IL, United States) plate reader set to read at the fluorescence plate-mode with excitation and emission wavelengths of 490 and 525 nm at 29 °C. Calcium responses were read immediately after the addition of 10 µL of either TMR-RK8, unlabeled RK8, or blank solvent (1% DMSO in HBSS). […]

[2] = system: tick kinin receptor in midgut muscles; test: Fluorescent labeling of live midgut ex vivo, confocal microscopy; format: binding, Rhipicephalus sanguineus
Excerpt: Three peptides were used in this study. These included: 1) the ligand for the endogenous tick kinin receptor from Rhipicephalus sanguineus, Rhisa-kinin 8 peptide of sequence GTGEDQAFSPWGamide (Rhisa-K-8; RK8; of identical sequence to Rhimi-K-8 in Rhipicephalus microplus)[48], 2) the same peptide but fluorescently labeled at the N-terminus with tetramethylrhodamine (TMR) a red fluorescent dye, designated TMR-Rhisa-K-8 (TMR-RK8), and 3) a labeled peptide synthesized with the scrambled sequence of the kinin ligand, designated TMR-Scrambled. The sequence of TMR-RK8 was TMR-C-GTGEDQAFSPWGamide). The TMR-Scrambled kinin (TMR-C-GTQWGPGFEADSamide) served as a negative control for tissue labeling. All peptides were custom-synthesized and purchased from GenScript (Piscataway, NJ, USA) with a purity of ≥ 95% and the cysteine in bold in both sequences was added to attach the label. Experiments were replicated with independently synthesized batches (4 mg each) of labeled and unlabeled peptides, for reproducibility. Unlabeled RK8 was used as a competitive ligand to verify target-specific binding of the labeled TMR-RK8 (see Ligand Competition Assay). For cell assays, the peptide stock solutions (100 µM) were made in 1% dimethyl sulfoxide (DMSO) in Hank’s balanced salt solution (HBSS, Thermo Fisher, Waltham, USA). For fluorescent cell labeling, peptide working solutions (10 µM) were prepared in HBSS from stock solutions. For assays on the midgut, peptides were solubilized and diluted in a tick physiological saline consisting of 140 mM NaCl, 5 mM KCl, 1 mM MgCl2, 5 mM CaCl2, 4 mM NaHCO3, and 5 mM HEPES, pH 7.2[49].
Individual female ticks were immobilized on a Petri dish filled with wax by submerging their legs in melted wax heated with a soldering pencil (Electronic Control Soldering Station EC 1000, Weller, Apex, North Carolina, USA). Females were dissected under physiological saline following the protocol described by Tidwell et al.[51]. The tick was cut along the edge of the scutum/alloscutum using a stainless steel #12 scalpel blade (Integra Miltex, York, PA, USA), after which the scutum was removed with a pair of fine forceps. To expose the midgut for removal, the tracheae, Malpighian tubules, ovaries, rectal sac, and synganglion were removed with fine forceps in that order. The midgut was then carefully removed and placed into 200 µL of fresh tick saline (See Reagents and Peptides) on a single gasketed incubation chamber (500 µL, Size 22 × 40 mm, Electron Microscopy Sciences, Hatfield, PA). The midguts were then rinsed three times with the physiological tick saline for subsequent fluorescent labeling or activity experiments.
To determine the location of the tick kinin receptor in the midgut of ticks, a commercially synthesized Rhisa-kinin peptide 8[52] conjugated with a stable, red fluorophore (TMR-RK8) or a similarly labeled peptide of scrambled sequence (TMR-Scrambled) were applied to freshly dissected midguts ex vivo. For this, midguts of unfed adult females were incubated in ice-cold saline for 10 min. The saline was removed before incubation in 200 µL of 4’,6-diamidino-2-phenylindole dihydrochloride (DAPI, Sigma, 1 µg/mL in saline) for 1 min and rinsed with saline (200 µL) once. After saline removal, the midgut was incubated for 1 min with 200 µL of 10 µM of either TMR-Scrambled kinin or TMR-RK8, then the labeled peptide solution was removed by pipette and the midgut was rinsed twice with 200 µL saline. […]

TMR-C-GTGEDQAFSPWGamide [TMR-RK8]
calcium fluorescence response of vector-only cells (in words) [1]: invariable background fluorescence | displacement of TMR-RK8 label by phalloidin (in words) ([2]; 10 µM TMR-RK8, Alexa Fluor 488 Phalloidin 15 min, midgut muscle fibers): no observed phalloidin displacement of the TMR-RK8 label | non-specific labeling below midgut surface (in words) ([2]; 10 µM labeled peptide, 1 min, midguts ex vivo, Z-slices under the surface): aggregation of TMR-RK8 signal in what appears to be lipid vesicles; also recorded: non-specific labeling observed in lipid vesicles inside the midgut | labeling of midgut surface muscles (in words) ([2]; 10 µM labeled peptide, 1 min, tick saline pH 7.2, midguts of unfed females ex vivo, DAPI and Alexa 488-phalloidin, confocal 20X/40X): labeled the kinin receptor in muscles; also recorded: localized the kinin receptor to both circular and longitudinal muscles; also recorded: signal was observed in the tick midgut muscles under confocal microscopy; also recorded: observed only on the surface of the midgut; also recorded: binding specifically to the circular (white arrowheads) and longitudinal (white arrows) muscles
